Like-named read-outs stand apart in the source and are kept apart here.
Experiments:
Human NPY2 receptor = target: T1, Human NPY2 receptor (Homo sapiens, UniProt P49146); test: Human NPY2 Receptor Binding Assay
T1 sequence (P49146 1-381): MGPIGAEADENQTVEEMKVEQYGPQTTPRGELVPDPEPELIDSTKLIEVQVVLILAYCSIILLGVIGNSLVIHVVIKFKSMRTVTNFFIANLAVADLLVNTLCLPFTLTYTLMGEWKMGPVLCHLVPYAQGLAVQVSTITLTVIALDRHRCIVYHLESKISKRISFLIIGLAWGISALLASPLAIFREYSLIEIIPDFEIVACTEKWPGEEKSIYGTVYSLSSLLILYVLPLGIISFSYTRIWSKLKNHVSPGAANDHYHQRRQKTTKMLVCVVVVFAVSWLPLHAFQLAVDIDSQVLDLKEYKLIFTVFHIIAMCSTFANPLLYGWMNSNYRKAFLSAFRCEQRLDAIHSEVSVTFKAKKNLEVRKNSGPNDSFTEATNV
Protocol: Binding assays were performed on GF/C Millipore 96-well plates pretreated with 0.02% polyethylenimine. The binding buffer for rat Y2 binding is Krebs-Ringer bicarbonate (pH 7.4) containing 0.01% BSA and 0.005% bacitracin. Samples consist of membrane protein, 25 pM [125I]PYY and drug dilution. Nonspecific binding is defined by 1 μpM NPY.
After a 2 hour incubation at room temperature with constant mixing, the samples are aspirated on a vacuum manifold, and rinsed with ice-cold binding buffer. The amount of radioactivity in each well is quantitated with either gamma counting or liquid scintillation.

Human NPY5 Receptor = target: T2, Human NPY5 Receptor (Homo sapiens, UniProt Q15761); test: Human NPY5 Receptor Binding Assay
T2 sequence (Q15761 1-445): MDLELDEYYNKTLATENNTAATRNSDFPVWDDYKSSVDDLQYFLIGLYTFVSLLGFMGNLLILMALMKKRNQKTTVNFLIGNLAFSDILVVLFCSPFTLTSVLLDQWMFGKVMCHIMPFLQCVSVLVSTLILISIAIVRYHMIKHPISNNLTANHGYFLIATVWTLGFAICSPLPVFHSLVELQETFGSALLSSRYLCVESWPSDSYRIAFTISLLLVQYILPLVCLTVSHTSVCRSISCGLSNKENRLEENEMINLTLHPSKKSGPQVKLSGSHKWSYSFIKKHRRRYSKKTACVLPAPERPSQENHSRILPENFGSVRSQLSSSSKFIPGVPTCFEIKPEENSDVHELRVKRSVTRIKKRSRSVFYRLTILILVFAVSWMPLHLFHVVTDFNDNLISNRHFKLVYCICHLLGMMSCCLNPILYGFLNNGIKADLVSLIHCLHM

[1] = [125I]PYY, read-out: hPPY2 IC50
[2] = [125I]PYY, read-out: hNPY5 IC50

SMILES	IC50 (Human NPY2 receptor; [1])	IC50 (Human NPY5 Receptor; [2])	IC50 (Human NPY2 receptor)	IC50 (Human NPY5 Receptor; hNPY5 IC50, [125I]PYY)
O=C(CSc1ncnc2c1ncn2[C@@H]1O[C@H](CO)[C@H](O)[C@H]1O)Nc1ccc(C2CCCCC2)cc1 [Compound 23, N-(4-Cyclohexyl-phenyl)-2-[9-((2R,3R,4R,5R)-3,4-dihydroxy-5-hydroxymethyl-tetrahydro-furan-2-yl)-9H-purin-6-ylsulfanyl]-acetamide]	> 5 µM	> 10 µM	–	–
O=C(CSc1ncnc2c1ncn2[C@@H]1O[C@H](CO)[C@H](O)[C@H]1O)Nc1ccc(C(=O)c2ccccc2)cc1 [Compound 24, N-(4-Benzoyl-phenyl)-2-[9-((2R,3R,4R,5R)-3,4-dihydroxy-hydroxymethy-tetrahydro-furan-2-yl)-9H-purin-ylsulfanyl]-acetamide]	> 5 µM	> 10 µM	–	–
O=C(CSc1nc2ccccc2c(=O)[nH]1)Nc1ccc(C2CCCCC2)cc1 [Compound 25, N-(4-Cyclohexyl-phenyl)-2-(4-oxo-3,-dihydro-quinazolin-2-ylsulfanyl)-acetamide]	> 5 µM	> 10 µM	–	–
O=C(CSc1ncnc2nc[nH]c12)Nc1ccc(C(=O)c2ccccc2)cc1 [Compound 28, N-(4-Benzoyl-phenyl)-2-(7H-purin-ylsulfanyl)-acetamide]	> 5 µM	> 10 µM	–	–
Cc1ccnc(SCC(=O)Nc2ccc(C(=O)c3ccccc3)cc2)n1 [Compound 30, N-(4-Benzoyl-phenyl)-2-(4-methyl-pyrimidin-2-ylsulfanyl)-acetamide]	> 5 µM	0.48 µM	–	–
O=C(CSC1=NCCS1)Nc1ccc(C2CCCCC2)cc1 [Compound 31]	> 5 µM	0.64 µM	–	–
O=C(CSC1=NCCS1)Nc1ccc(C(=O)c2ccccc2)cc1 [Compound 32, N-(4-Benzoyl-phenyl)-2-(4,5-dihydro-thiazol-2-ylsulfanyl)-acetamide]	> 5 µM	1.2 µM	–	–
O=C(CSCCO)Nc1ccc(C2CCCCC2)cc1 [Compound 33, N-(4cydohexyl-phenyl)-2-(2-hydroxy-ethylsulfanyl)-acetamide]	> 5 µM	0.069 µM	–	–
O=C(CSCC(O)CO)Nc1ccc(C2CCCCC2)cc1 (stereo not shown) [Compound 34, N-(4-Cyclohexyl-phenyl)-2-(2,3-dihydroxy-propylsulfanyl)-acetamide]	> 5 µM	0.144 µM	–	–
O=C(CSc1ncnc2[nH]ncc12)Nc1ccc(C2CCCCC2)cc1 [Compound 35, N-(4-Cyclohexyl-phenyl)-2-(1H-pyrazolo[3,4-d]pyrimidin-4-ylsulfanyl)-acetamide]	> 5 µM	3.6 µM	–	–
O=C(CSc1cccc[n+]1[O-])Nc1ccc(C2CCCCC2)cc1 [Compound 36, N-(4-Cyclohexyl-phenyl)-2-(1-oxy-pyridin-2-ylsulfanyl)-acetamide]	> 5 µM	0.11 µM	–	–
O=C(CSc1nc2ccccc2s1)Nc1ccc(C2CCCCC2)cc1 [Compound 37, 2-(Benzothiazol-2-ylsulfanyl)-N-(4-cyclohexylphenyl)-acetamide]	> 5 µM	1.7 µM	–	–
O=C(CSc1nc2ccccc2o1)Nc1ccc(C2CCCCC2)cc1 [Compound 38, 2-(Benzooxazol-2-ylsulfanyl)-N-(-Cyclohexyl-phenyl)-acetamide]	> 5 µM	> 10 µM	–	–
O=C(CSc1ncccn1)Nc1ccc(C2CCCCC2)cc1 [Compound 39, N-(-Cyclohexyl-phenyl)-2-(pyrimidin-2-ylsulfanyl)-acetamide]	> 5 µM	0.49 µM	–	–
O=C(CSCCO)Nc1ccc(C(=O)c2ccccc2)cc1 [Compound 40, N-(4-Benzoyl-phenyl)-2-(2-hydroxy-ethylsulfanyl)-acetamide]	> 5 µM	0.69 µM	–	–
O=C(CSc1ccncc1)Nc1ccc(C(=O)c2ccccc2)cc1 [Compound 41, N-(4-Benzoyl-phenyl)-2-(pyridin-4-ylsulfanyl)-acetamide]	–	–	> 5 µM	0.33 µM
O=C(CSCC(O)CO)Nc1ccc(C(=O)c2ccccc2)cc1 (stereo not shown) [Compound 42, N-(4-Benzoyl-phenyl)-2-(2,3-dihydroxy-propylsulfanyl)-acetamide]	> 5 µM	1.5 µM	–	–
